Laboratory results: ChEMBL document CHEMBL6092135, “Current development and structure-activity relationship study of berberine derivatives” (Bioorg Med Chem, 2024)

What was measured:
Candida albicans [1] = assay: Antifungal activity against Candida albicans ATCC 10231 assessed as reduction in fungal growth by NCCLS method; type: functional
Cryptococcus neoformans = assay: Antifungal activity against Cryptococcus neoformans assessed as fungal growth inhibition by CLSI based method; type: functional
Aspergillus niger = assay: Antifungal activity against Aspergillus niger assessed as inhibition of fungal growth incubated for 48 hrs by CLSI protocol based analysis; type: functional
SMMC-7721 = assay: Antiproliferative activity against human SMMC-7721 cells assessed as reduction in cell growth; type: functional, cell-based
CEM-VCR = assay: Antiproliferative activity against human CEM-VCR cells assessed as reduction in cell growth; type: functional, cell-based
[2] = tested on: Lewis lung carcinoma cell line; assay: Cytotoxicity against mouse Lewis lung carcinoma cell line; type: functional, cell-based
[3] = Antiproliferative activity against human QGY-7701 cells assessed as reduction in cell growth; type: functional, cell-based; conditions: QGY7701
HepG2 [4] = assay: Antiproliferative activity against human HepG2 cells assessed as reduction in cell growth; type: functional, cell-based
HCT-116 = assay: Cytotoxicity against human HCT-116 cells assessed as reduction in cell viability incubated for 24 hrs by MTT assay; type: functional, cell-based; conditions: HCT-116, 24 h
BFTC-905 = assay: Antiproliferative activity against human BFTC-905 cells assessed as reduction in cell viability; type: functional, cell-based
C6 = assay: Antiproliferative activity against rat C6 cells assessed as inhibition of cell growth incubated for 72 hrs by Sulforhodamine B assay; type: functional, cell-based; conditions: C6, 72 h
HT-29 = assay: Antiproliferative activity against human HT-29 cells assessed as reduction in cell viability incubated for 24 hrs by MTT assay; type: functional, cell-based; conditions: HT-29, 24 h
HepG2 [5] = assay: Cytotoxicity against human HepG2 cells assessed as reduction in cell viability by MTT assay; type: functional, cell-based
Candida albicans [6] = assay: Antifungal activity against Candida albicans assessed as reduction in fungal growth incubated for 12 hrs by microdilution method; type: functional
[7] = Antioxidant activity assessed as DPPH radical scavenging activity measured for 30 mins by spectrophotometric analysis; type: functional
Ca-Ski = assay: Cytotoxicity against human Ca-Ski cells assessed as reduction in cell viability measured after 48 hrs by SRB assay; type: functional, cell-based
HeLa [8] = assay: Cytotoxicity against human HeLa cells assessed as reduction in cell viability measured after 48 hrs by SRB assay; type: functional, cell-based
Listeria monocytogenes = assay: Antibacterial activity against Listeria monocytogenes ATCC 19111 assessed as reduction in bacterial growth incubated for 20 to 24 hrs by microbroth serial dilution assay; type: functional; conditions: time 20-24 hrs
Salmonella typhimurium = assay: Antimicrobial activity against Salmonella enterica subsp. enterica serovar Typhimurium LT2 assessed as inhibition of bacterial growth measured for 24 hrs by broth micro-dilution method; type: functional
Plasmodium falciparum = assay: Antiplasmodial activity against Plasmodium falciparum 3D7 assessed as inhibition of parasite growth measured for 42 hrs by SYBR Green staining based fluorescence analysis; type: functional, organism-based; conditions: 3D7, 42 h
A549 [9] = assay: Antiproliferative activity against human A549 cells assessed as reduction in cell viability incubated for 24 hrs by CCK-8 assay; type: functional, cell-based; conditions: A549, 24 h
A549 [10] = assay: Anticancer activity against human A549 cells; type: functional, cell-based
HeLa [11] = assay: Anticancer activity against human HeLa cells; type: functional, cell-based
DNA topoisomerase 1 = DNA topoisomerase 1 (Homo sapiens, UniProt P11387); assay: Inhibition of Topoisomerase 1 (unknown origin)
Escherichia coli = assay: Antibacterial activity against Escherichia coli ATCC 25922 assessed as bacterial growth inhibition measured after 48 hrs by resazurin assay; type: functional
Enterovirus A71 = assay: Antiviral activity against human EV71 infected in human RD cells assessed as inhibition of cytopathic effect by microscopy based analysis; type: functional, organism-based; conditions: Enterovirus A
CCRF-CEM = assay: Antiproliferative activity against human CEM cells assessed as reduction in cell viability measured after 3 to 4 days by MTT assay; type: functional, cell-based
[12] = tested on: Mycobacterium tuberculosis; assay: Antimycobacterial activity against Mycobacterium tuberculosis H37Rv assessed as reduction in bacterial growth incubated for 7 days by resazurin based assay; type: functional; conditions: 168 h, time 7 day
Coxsackievirus B3 = assay: Antiviral activity against Coxsackievirus B3 infected in human HEp-2 cells assessed as inhibition of virus-induced cytopathic effect measured after 48 hrs by MTT assay; type: functional, organism-based; conditions: Enterovirus B, HEp-2, 48 h
Enterococcus faecium = assay: Antibacterial activity against Enterococcus faecium ATCC 19434 assessed as reduction in microbial growth measured after 24 hrs by two-fold serial dilution method; type: functional
Bacillus anthracis = assay: Antibacterial activity against Bacillus anthracis; type: functional
Staphylococcus aureus [13] = assay: Antibacterial activity against Staphylococcus aureus ATCC 25923 assessed as reduction in bacterial growth incubated for 24 hrs by serial dilution method; type: functional
Enterococcus faecalis = assay: Antibacterial activity against Enterococcus faecalis ATCC 29212 assessed as reduction in microbial growth after 16 hrs by broth microdilution method; type: functional
Bacillus cereus = assay: Antibacterial activity against Bacillus cereus ATCC 27348 assessed as inhibition of bacterial growth incubated for 18 hrs by microdilution method; type: functional
Staphylococcus aureus [14] = assay: Antibacterial activity against Staphylococcus aureus ATCC 25923 assessed as reduction in microbial growth measured after 24 hrs by spectrophotometric method; type: functional

Sequence of DNA topoisomerase 1 (P11387 whole entry): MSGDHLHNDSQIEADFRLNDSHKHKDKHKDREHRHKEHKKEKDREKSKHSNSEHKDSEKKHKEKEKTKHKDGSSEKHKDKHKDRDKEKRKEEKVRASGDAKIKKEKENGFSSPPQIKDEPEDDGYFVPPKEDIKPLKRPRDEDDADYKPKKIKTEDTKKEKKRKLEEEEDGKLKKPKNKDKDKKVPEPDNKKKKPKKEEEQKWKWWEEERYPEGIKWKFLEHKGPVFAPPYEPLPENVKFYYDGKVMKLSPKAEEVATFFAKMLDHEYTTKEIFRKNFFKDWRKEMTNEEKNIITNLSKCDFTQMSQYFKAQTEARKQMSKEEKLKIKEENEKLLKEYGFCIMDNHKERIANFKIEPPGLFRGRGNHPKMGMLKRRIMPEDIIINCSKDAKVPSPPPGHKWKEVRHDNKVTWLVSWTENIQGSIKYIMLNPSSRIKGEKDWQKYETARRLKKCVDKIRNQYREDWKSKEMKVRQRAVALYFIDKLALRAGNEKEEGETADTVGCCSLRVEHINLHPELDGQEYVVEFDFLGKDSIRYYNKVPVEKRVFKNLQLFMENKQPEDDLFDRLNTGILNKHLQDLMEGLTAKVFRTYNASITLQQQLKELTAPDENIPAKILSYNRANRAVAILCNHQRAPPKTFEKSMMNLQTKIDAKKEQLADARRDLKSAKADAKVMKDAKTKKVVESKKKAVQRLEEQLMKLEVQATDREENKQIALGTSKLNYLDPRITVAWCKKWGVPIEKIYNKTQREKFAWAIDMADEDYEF

COc1ccc2c(Cc3ccc(C(C)(C)C)cc3)c3[n+](cc2c1OC)CCc1cc2c(cc1-3)OCO2
MIC (Candida albicans [1]): 1.56 µg/mL

CCCCOc1c(OC)ccc2c(Cc3ccc(C(C)C)cc3)c3[n+](cc12)CCc1cc2c(cc1-3)OCO2.[Cl-]
MIC (Cryptococcus neoformans): 0.25 µg/mL
MIC (Aspergillus niger): 0.25 µg/mL

CCCCCCCCc1c2[n+](cc3c(OC)c(OC)ccc13)CCc1cc3c(cc1-2)OCO3
IC50 (SMMC-7721): 0.02 µM
IC50 (CEM-VCR): 0.02 µM
IC50 [2]: 0.02 µM
IC50 [3]: 0.02 µM
IC50 (HepG2 [4]): 0.02 µM

COc1ccc2c(c[n+]3c4c2ccc2c5c(cc(c24)CC3)OCO5)c1OC(=O)c1ccccc1
IC50 (HCT-116): 0.47 µM

CCCCCCCCCCCCc1c2[n+](cc3c(OC)c(OC)ccc13)CCc1cc3c(cc1-2)OCO3
IC50 (BFTC-905): 0.77 µM
IC50 (C6): 0.77 µM
IC50 (HT-29): 0.77 µM
IC50 (HepG2 [5]): 0.77 µM

COc1ccc2c(Cc3ccc(C(C)C)cc3)c3[n+](cc2c1O)CCc1cc2c(cc1-3)OCO2.[Cl-]
MIC (Candida albicans [6]): 1 µg/mL

COc1cc(CN2CCN(c3ccc(C)cc3C)CC2)c2cc3[n+](cc2c1O)CCc1cc2c(cc1-3)OCO2
IC50 [7]: 19.8 µM
IC50 (Ca-Ski): 5.75 µM
IC50 (HeLa [8]): 7.33 µM

COc1cc(CN2CCN(C(c3ccccc3)c3ccccc3)CC2)c2cc3[n+](cc2c1O)CCc1cc2c(cc1-3)OCO2.[Cl-]
MIC (Listeria monocytogenes): 200 µg/mL

COc1cc(CN2CCN(c3ccc(F)cc3F)CC2)c2cc3[n+](cc2c1O)CCc1cc2c(cc1-3)OCO2
IC50 [7]: 19.8 µM
IC50 (Ca-Ski): 5.75 µM
IC50 (HeLa [8]): 7.33 µM

COc1cc(CN2CCN(c3ccccc3Cl)CC2)c2cc3[n+](cc2c1O)CCc1cc2c(cc1-3)OCO2.[Cl-]
MIC (Listeria monocytogenes): 200 µg/mL

COc1ccc(N2CCN(Cc3cc(OC)c(O)c4c[n+]5c(cc34)-c3cc4c(cc3CC5)OCO4)CC2)c(OC)c1
IC50 [7]: 19.8 µM
IC50 (Ca-Ski): 5.75 µM
IC50 (HeLa [8]): 7.33 µM

COc1cc(CN2CCN(c3cccc(Cl)c3Cl)CC2)c2cc3[n+](cc2c1O)CCc1cc2c(cc1-3)OCO2
IC50 [7]: 19.8 µM
IC50 (Ca-Ski): 5.75 µM
IC50 (HeLa [8]): 7.33 µM

COc1cc(CN2CCN(c3ccc(Cl)c(Cl)c3)CC2)c2cc3[n+](cc2c1O)CCc1cc2c(cc1-3)OCO2
IC50 [7]: 19.8 µM
IC50 (Ca-Ski): 5.75 µM
IC50 (HeLa [8]): 7.33 µM

COc1cc(Cn2ccnc2)c2cc3[n+](cc2c1O)CCc1cc2c(cc1-3)OCO2.[Cl-]
MIC (Salmonella typhimurium): 1 µg/mL

COc1cc(CN2CCN(c3cccc(C)c3C)CC2)c2cc3[n+](cc2c1O)CCc1cc2c(cc1-3)OCO2
IC50 [7]: 19.8 µM
IC50 (Ca-Ski): 5.75 µM
IC50 (HeLa [8]): 7.33 µM

COc1cc(CN2CCN(c3cccc(F)c3F)CC2)c2cc3[n+](cc2c1O)CCc1cc2c(cc1-3)OCO2
IC50 [7]: 19.8 µM
IC50 (Ca-Ski): 5.75 µM
IC50 (HeLa [8]): 7.33 µM

COc1cc(CN2CCN(c3ccc(Cl)cc3Cl)CC2)c2cc3[n+](cc2c1O)CCc1cc2c(cc1-3)OCO2
IC50 [7]: 19.8 µM
IC50 (Ca-Ski): 5.75 µM
IC50 (HeLa [8]): 7.33 µM

COc1ccc2cc3[n+](cc2c1OCc1cn(-c2ccc(S(=O)(=O)N4CCOCC4)cc2)nn1)CCc1cc2c(cc1-3)OCO2.[Cl-]
IC50 (Plasmodium falciparum): 0.2 µg/mL

COc1ccc2cc3[n+](cc2c1OCc1cn(-c2ccc(S(=O)(=O)Nc4ccc(F)cc4)cc2)nn1)CCc1cc2c(cc1-3)OCO2.[Cl-]
IC50 (Plasmodium falciparum): 0.2 µg/mL

COc1ccc2cc3[n+](cc2c1OCc1cn(-c2ccc(S(=O)(=O)Nc4ccc(Cl)cc4)cc2)nn1)CCc1cc2c(cc1-3)OCO2.[Cl-]
IC50 (Plasmodium falciparum): 0.2 µg/mL

COc1ccc2cc3[n+](cc2c1OCc1cn(-c2ccc(S(N)(=O)=O)cc2)nn1)CCc1cc2c(cc1-3)OCO2.[Cl-]
IC50 (Plasmodium falciparum): 0.2 µg/mL

CCCCCCN(CCCCCC)c1cc(OC)c(O)c2c[n+]3c(cc12)-c1cc2c(cc1CC3)OCO2
IC50 (A549 [9]): 0.29 µM

COc1ccc2cc3[n+](cc2c1OCCn1cccn1)CCc1cc2c(cc1-3)OCO2
IC50 (A549 [10]): 8.99 µM
IC50 (HeLa [11]): 8.99 µM

COc1ccc2c(c1OS(=O)(=O)c1c(F)c(F)cc(F)c1F)CN1CCc3cc4c(cc3C1C2)OCO4 (stereo unspecified)
IC50 (DNA topoisomerase 1): 1.05 µM

COc1ccc2c(c1NS(=O)(=O)c1ccc(Cl)cc1)C[N+]1(S(=O)(=O)c3ccc(Cl)cc3)CCc3cc4c(cc3C1C2)OCO4 (stereo unspecified)
MIC (Escherichia coli): 0.5 µg/mL

COc1ccc2cc3[n+](cc2c1OCCn1nc(C)c(Cl)c1C)CCc1cc2c(cc1-3)OCO2
IC50 (A549 [10]): 8.99 µM
IC50 (HeLa [11]): 8.99 µM

COc1ccc2cc3[n+](cc2c1OCC(=O)OCc1ccccc1)CCc1cc2c(cc1-3)OCO2
IC50 (Enterovirus A71): 7.12 µM

COc1ccc2c(CCCc3ccccc3)c3[n+](cc2c1OC)CCc1cc2c(cc1-3)OCO2
IC50 (CCRF-CEM): 0.21 µM

COc1ccc2cc3[n+](cc2c1OCCn1nc(C)cc1C)CCc1cc2c(cc1-3)OCO2
IC50 (A549 [10]): 8.99 µM
IC50 (HeLa [11]): 8.99 µM

COc1ccc2cc3[n+](cc2c1OCCn1nc(C)c(Br)c1C)CCc1cc2c(cc1-3)OCO2
IC50 (A549 [10]): 8.99 µM
IC50 (HeLa [11]): 8.99 µM

CCCCCCC1c2cc(OC)c(OC)cc2C=C2c3cc4c(cc3CCN21)OCO4.Cl (stereo unspecified)
MIC [12]: 1 µg/mL

COc1ccc2cc3[n+](cc2c1)CCc1cc(OCCOCCN)c(OC)cc1-3
IC50 (Coxsackievirus B3): 3.08 µM

COc1cc2c(cc1OC)C(c1ccccc1)N1CCc3cc4c(cc3C1=C2)OCO4.Cl (stereo unspecified)
MIC [12]: 1 µg/mL

CCCCCOC(=O)COc1c(OC)ccc2cc3[n+](cc12)CCc1cc2c(cc1-3)OCO2
IC50 (Enterovirus A71): 7.12 µM

CCOC(=O)COc1c(OC)ccc2cc3[n+](cc12)CCc1cc2c(cc1-3)OCO2
IC50 (Enterovirus A71): 7.12 µM

Br.COc1ccc2c(Cc3ccccc3-c3cc4cc([N+](=O)[O-])ccc4[nH]3)c3[n+](cc2c1OC)CCc1cc2c(cc1-3)OCO2
MIC (Enterococcus faecium): 3.12 µg/mL
MIC (Bacillus anthracis): 3.12 µg/mL
MIC (Staphylococcus aureus [13]): 3.12 µg/mL
MIC (Enterococcus faecalis): 3.12 µg/mL
MIC (Bacillus cereus): 3.12 µg/mL

CCCOc1c(OC)cc(/C=C2\SC(=O)NC2=O)c2c1CN1CCc3cc4c(cc3C1C2)OCO4 (stereo unspecified)
MIC (Staphylococcus aureus [14]): 0.008 µg/mL

O=C1O[C@H]([C@@H](O)CO)C(O)=C1O [ASCORBIC ACID]
IC50 [7]: 61 µM

COc1ccc2cc3[n+](cc2c1OC)CCc1cc2c(cc1-3)OCO2 [BERBERINE]
IC50 [7]: 89.2 µM
IC50 (Ca-Ski): 15.2 µM
MIC (Staphylococcus aureus [14]): 0.698 µg/mL
IC50 (HeLa [8]): 13.4 µM

N=C(N)c1ccc(-c2ccc(-c3ccc(C(=N)N)cc3)o2)cc1 [FURAMIDINE]
IC50 (DNA topoisomerase 1): 1.2 µM

CCn1cc(C(=O)O)c(=O)c2cc(F)c(N3CCNCC3)cc21 [NORFLOXACIN]
MIC (Staphylococcus aureus [14]): 0.025 µg/mL
